Measurements reported in paper PMC10046037, “GABRG2 Variants Associated with Febrile Seizures” (Biomolecules, 2023).

Target: T1, α1β3γ2 GABAA receptor, γ2W162X variant (Homo sapiens, UniProt P14867+P28472)
T1 construct: expressed in transfected cells; host or cells: HEK293T
T1 sequence (P14867 28-456): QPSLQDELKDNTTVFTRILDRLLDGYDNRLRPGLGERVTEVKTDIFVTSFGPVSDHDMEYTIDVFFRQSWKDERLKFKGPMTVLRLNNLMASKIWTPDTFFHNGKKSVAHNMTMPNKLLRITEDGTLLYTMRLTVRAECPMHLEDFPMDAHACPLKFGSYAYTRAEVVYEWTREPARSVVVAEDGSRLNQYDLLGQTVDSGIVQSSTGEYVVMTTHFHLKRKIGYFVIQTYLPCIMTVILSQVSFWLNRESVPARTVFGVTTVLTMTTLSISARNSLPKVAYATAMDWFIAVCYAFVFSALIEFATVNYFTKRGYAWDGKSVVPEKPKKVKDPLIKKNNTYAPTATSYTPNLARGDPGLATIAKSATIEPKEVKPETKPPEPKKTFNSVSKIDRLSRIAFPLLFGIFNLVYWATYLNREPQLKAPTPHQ
T1 sequence (P28472 1-473 isoform P28472-2): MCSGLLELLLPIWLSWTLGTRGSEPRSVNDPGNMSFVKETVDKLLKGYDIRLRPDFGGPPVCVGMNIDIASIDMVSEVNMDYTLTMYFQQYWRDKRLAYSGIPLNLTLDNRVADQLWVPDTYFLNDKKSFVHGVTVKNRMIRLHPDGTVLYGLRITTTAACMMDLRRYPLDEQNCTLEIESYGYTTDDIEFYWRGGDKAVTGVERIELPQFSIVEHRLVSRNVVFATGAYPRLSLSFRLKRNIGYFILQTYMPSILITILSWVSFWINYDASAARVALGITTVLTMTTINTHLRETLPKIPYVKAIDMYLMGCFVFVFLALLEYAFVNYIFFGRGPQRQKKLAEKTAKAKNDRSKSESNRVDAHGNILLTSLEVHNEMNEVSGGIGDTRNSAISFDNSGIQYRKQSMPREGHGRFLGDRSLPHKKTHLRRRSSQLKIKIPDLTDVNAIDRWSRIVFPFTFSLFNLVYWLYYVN
Assay: Automated patch clamp of GABA-elicited currents (SyncroPatch 384PE), γ2W162X
Format: cell-based
Conditions: mean
Protocol: The coding sequences of human α1 (GABRA1, NM_000806), β3 (GABRB3, NM_021912), and γ2 (GABRG2, NM_198904.2) GABAAR subunits were subcloned into the pcDNA3.1 expression vectors (Invitrogen, Waltham, MA, USA).
HEK293T cells (ATCC, CRL-11268) were cultured at 37 °C in a humidified 5% CO2 incubator and maintained in Dulbecco’s modified Eagle’s medium (Invitrogen) supplemented with 10% fetal bovine serum (Life Technologies, Carlsbad, CA, USA), and 100 IU/mL of penicillin/streptomycin (Life Technologies). For the expression experiments, 4 × 10^5 cells were transfected using polyethylenimine (PEI) reagent (40 kD, Polysciences, Warrington, PA, USA) at a DNA: to transfection reagent ratio of 1:2.5 and harvested 36 h after transfection. To express WT and variant α1β3γ2 receptors, a total of 3 µg of α1, β3, and γ2 (WT or mutant) subunit cDNAs were transfected at a ratio of 1:1:1 into 60 mm culture dishes. For the mock-transfected condition, an empty pcDNA3.1 vector was added for a final cDNA transfection amount of 3 μg. For the electrophysiology experiments, 2.5 × 10^5 cells were plated in 100 mm culture dishes and transfected after 24 h with 3 μg of cDNA of each α1, β3, γ2 (wild-type or mutant) subunit, using X-tremeGENE HP DNA transfection Reagent (Roche Diagnostics, Basel, Switzerland), following the manufacturer’s protocol. Recordings were obtained forty-eight hours after transfection.
Whole-cell patch clamp recordings were conducted according to the manufacturer’s standard procedure for the SyncroPatch 384 [31]. Whole-cell voltage-clamp recordings were performed at room temperature on HEK293T cells 48 h after transfection with GABAAR subunits, using the SyncroPatch 384PE (Nanion Technologies, Munich, Germany). Cells, at a concentration of 400,000 cells/mL, were harvested in suspension in external solution containing 140 mM of NaCl, 2 mM of CaCl2, 4 mM of KCl, 1 mM of MgCl2, 5 mM of glucose, and 10 mM of HEPES (pH 7.4 with NaOH, 298 mOsm). The cells were loaded in a multi-hole (4 holes per well) 384-well Nanion patch clamp (NPC) chip with a thick borosilicate glass bottom and an average resistance pore size of […]. Built-in electrophysiological protocols were used, and the data were digitized using PatchControl 384 (Nanion Technologies) application. Using PatchControl 384, electrophysiological parameters, such as seal resistance, capacitance, and series resistance, were determined for each well after the application of a test pulse, and subsequently monitored over time. […] The currents were normalized to the maximal response of each well, and the concentration–response curves were calculated from single-point additions. The EC50 values for each variant or wild-type receptor were calculated across multiple wells for each experimental condition.

Deactivation (1 mM GABA for 5 ms, HEK293T, -80 mV): 533.8 ms
IMAX (maximal GABA-evoked peak current) (1 mM GABA for 5 ms, HEK293T): 0.48 nA
IMAX variant/IMAX WT (1 mM GABA): 24.07%
Rise Time (10–90% rise time, 1 mM GABA for 5 ms, HEK293T): 23.51 ms
Structure (SMILES): NCCCC(=O)O [GABA, γ-aminobutyric acid]
